Values of other authors as cited in US20040224039A1, “Compositions and methods for the treatment of diseases and disorder associated with oxidative damage” (priority 2003, published 2004).

Conditions: following the administration of 500 mg aspirin

## CC(=O)Oc1ccccc1C(=O)O [aspirin, acetylsalicylic acid]
  plasma level: 130 µM
